How the values were obtained:
Staphylococcus aureus = test: Antimicrobial activity against Staphylococcus aureus ATCC 25923 after 12 to 18 hrs by 2-fold serial dilution method; assay type: functional
[1] = system: NCI-60 human cancer cell line panel (Homo sapiens); test: Anticancer activity against NCI 60 human cancer cell lines assessed as mean cell growth in single dose assay
[2] = Growth inhibition of human NCI60 cells assessed as cell growth; assay type: functional; set-up: concentration or dose not given beside the values
[3] = Growth inhibition of human LOXIMVI cells; assay type: functional; settings: LOX IMVI; for CC50: read-out: LC50 (the source's name)
Malme-3M = test: Growth inhibition of human MALME-3M cells; assay type: functional; settings: for CC50: read-out: LC50 (the source's name)
M14 = test: Growth inhibition of human M14 cells; assay type: functional; settings: for CC50: read-out: LC50 (the source's name)
MDA-MB-435 = test: Growth inhibition of human MDA-MB-435 cells; assay type: functional; settings: for CC50: read-out: LC50 (the source's name)
SK-MEL-2 = test: Growth inhibition of human SK-MEL-2 cells; assay type: functional; settings: for CC50: read-out: LC50 (the source's name)
SK-MEL-28 = test: Growth inhibition of human SK-MEL-28 cells; assay type: functional; settings: for CC50: read-out: LC50 (the source's name)
SK-MEL-5 = test: Growth inhibition of human SK-MEL-5 cells; assay type: functional
[4] = Growth inhibition of human UACC257 cells; assay type: functional; settings: for GI50: UACC-257; for CC50: UACC-257, read-out: LC50 (the source's name)
[5] = Growth inhibition of human UACC62 cells; assay type: functional; settings: for GI50: UACC-62; for CC50: UACC-62, read-out: LC50 (the source's name)
COLO 205 = test: Growth inhibition of human COLO205 cells; assay type: functional; settings: for CC50: read-out: LC50 (the source's name)
[6] = Growth inhibition of human HCC2998 cells; assay type: functional; settings: for GI50: HCC 2998; for CC50: HCC 2998, read-out: LC50 (the source's name)
HCT-116 = test: Growth inhibition of human HCT116 cells; assay type: functional; settings: for CC50: read-out: LC50 (the source's name)
[7] = Growth inhibition of human HCT15 cells; assay type: functional; settings: for GI50: HCT-15; for CC50: HCT-15, read-out: LC50 (the source's name)
HT-29 = test: Growth inhibition of human HT-29 cells; assay type: functional
KM12 = test: Growth inhibition of human KM12 cells; assay type: functional; settings: for CC50: read-out: LC50 (the source's name)
SW-620 = test: Growth inhibition of human SW620 cells; assay type: functional; settings: for CC50: read-out: LC50 (the source's name)
A549 = test: Growth inhibition of human A549 cells; assay type: functional; settings: for CC50: read-out: LC50 (the source's name)
[8] = Growth inhibition of human EKVX cells; assay type: functional; settings: for CC50: read-out: LC50 (the source's name)
HOP-62 = test: Growth inhibition of human HOP62 cells; assay type: functional; settings: for CC50: read-out: LC50 (the source's name)
[9] = Growth inhibition of human HOP92 cells; assay type: functional; settings: for GI50: HOP-92; for CC50: HOP-92, read-out: LC50 (the source's name)
NCI-H226 = test: Growth inhibition of human NCI-H226 cells; assay type: functional; settings: for CC50: read-out: LC50 (the source's name)
NCI-H23 = test: Growth inhibition of human NCI-H23 cells; assay type: functional; settings: for CC50: read-out: LC50 (the source's name)
NCI-H460 = test: Growth inhibition of human NCI-H460 cells; assay type: functional; settings: for CC50: read-out: LC50 (the source's name)
NCI-H522 = test: Growth inhibition of human NCI-H522 cells; assay type: functional; settings: for CC50: read-out: LC50 (the source's name)
SF-268 = test: Growth inhibition of human SF268 cells; assay type: functional; settings: for CC50: read-out: LC50 (the source's name)
[10] = Growth inhibition of human SF295 cells; assay type: functional; settings: SF-295
[11] = Growth inhibition of human SF539 cells; assay type: functional; settings: for GI50: SF-539; for CC50: SF-539, read-out: LC50 (the source's name)
SNB-19 = test: Growth inhibition of human SNB19 cells; assay type: functional
SNB-75 = test: Growth inhibition of human SNB75 cells; assay type: functional; settings: for CC50: read-out: LC50 (the source's name)
U-251 = test: Growth inhibition of human U251 cells; assay type: functional
NCI-H322M = test: Growth inhibition of human NCI-H322M cells; assay type: functional

Cn1n[n+](C)c2c1C(=O)c1ccccc1C2=O.[Cl-]
MIC (Staphylococcus aureus): 2 µg/mL | Activity [1]: -46%

CCCCCCCCn1n[n+](C)c2c1C(=O)c1ccccc1C2=O.[Cl-]
MIC (Staphylococcus aureus): 0.032 µg/mL | Activity [1]: 44.8%

C[n+]1nn(Cc2ccccc2)c2c1C(=O)c1ccccc1C2=O.[Cl-]
MIC (Staphylococcus aureus): 2 µg/mL | Activity [1]: -37.9%

C[n+]1nn(-c2ccccc2)c2c1C(=O)c1ccccc1C2=O.[Cl-]
Activity [2]: -10.18% | GI50 [3]: 1160 nM | CC50 [3]: 5550 nM | GI50 (Malme-3M): 210 nM | CC50 (Malme-3M): 650 nM | GI50 (M14): 200 nM | CC50 (M14): 550 nM | GI50 (MDA-MB-435): 200 nM | CC50 (MDA-MB-435): 580 nM | GI50 (SK-MEL-2): 2180 nM | CC50 (SK-MEL-2): 6440 nM | GI50 (SK-MEL-28): 1190 nM | CC50 (SK-MEL-28): 6470 nM | GI50 (SK-MEL-5): 180 nM | LC50 (lethal concentration 50) (SK-MEL-5): 550 nM | GI50 [4]: 1700 nM | CC50 [4]: 4490 nM | GI50 [5]: 1090 nM | CC50 [5]: 5230 nM | GI50 (COLO 205): 190 nM | CC50 (COLO 205): 620 nM | GI50 [6]: 340 nM | CC50 [6]: 3690 nM | GI50 (HCT-116): 320 nM | CC50 (HCT-116): 1500 nM | GI50 [7]: 1290 nM | CC50 [7]: 6370 nM | GI50 (HT-29): 400 nM | LC50 (HT-29): > 100000 nM | GI50 (KM12): 820 nM | CC50 (KM12): 9300 nM | GI50 (SW-620): 550 nM | CC50 (SW-620): 3840 nM | GI50 (A549): 350 nM | CC50 (A549): 5460 nM | GI50 [8]: 1890 nM | CC50 [8]: 12600 nM | GI50 (HOP-62): 760 nM | CC50 (HOP-62): 5570 nM | GI50 [9]: 4170 nM | CC50 [9]: 9150 nM | CC50 (NCI-H226): 5300 nM | GI50 (NCI-H23): 980 nM | CC50 (NCI-H23): 6540 nM | GI50 (NCI-H460): 300 nM | CC50 (NCI-H460): 4230 nM | GI50 (NCI-H522): 11500 nM | CC50 (NCI-H522): 7740 nM | GI50 (SF-268): 1640 nM | CC50 (SF-268): > 100000 nM | GI50 [10]: 540 nM | LC50 (concentration killing 50% of cells) [10]: 4970 nM | GI50 [11]: 1090 nM | CC50 [11]: 4720 nM | GI50 (SNB-19): 1070 nM | LC50 (SNB-19): 4340 nM | GI50 (SNB-75): 640 nM | CC50 (SNB-75): 5870 nM | GI50 (U-251): 1260 nM | LC50 (U-251): 4330 nM | MIC (Staphylococcus aureus): 8 µg/mL

Cc1ccc(-n2n[n+](C)c3c2C(=O)c2ccccc2C3=O)cc1.O=S(=O)([O-])C(F)(F)F
Activity [2]: 11.53% | GI50 [3]: 1800 nM | CC50 [3]: 23000 nM | GI50 (Malme-3M): 320 nM | CC50 (Malme-3M): 13000 nM | GI50 (M14): 260 nM | CC50 (M14): 3570 nM | GI50 (MDA-MB-435): 170 nM | CC50 (MDA-MB-435): 600 nM | GI50 (SK-MEL-2): 2170 nM | CC50 (SK-MEL-2): 41100 nM | GI50 (SK-MEL-28): 2650 nM | CC50 (SK-MEL-28): 36500 nM | GI50 [4]: 1850 nM | CC50 [4]: 17700 nM | GI50 [5]: 1650 nM | CC50 [5]: 6380 nM | GI50 (COLO 205): 430 nM | CC50 (COLO 205): 4430 nM | GI50 [6]: 1130 nM | CC50 [6]: 5400 nM | GI50 (HCT-116): 1550 nM | CC50 (HCT-116): 7920 nM | GI50 [7]: 2440 nM | CC50 [7]: 41200 nM | GI50 (HT-29): 2100 nM | LC50 (HT-29): > 100000 nM | GI50 (KM12): 1380 nM | CC50 (KM12): 13900 nM | GI50 (SW-620): 1760 nM | CC50 (SW-620): 19200 nM | GI50 (A549): 1110 nM | CC50 (A549): 10000 nM | GI50 [8]: 4160 nM | CC50 [8]: 46800 nM | GI50 (HOP-62): 2160 nM | CC50 (HOP-62): 17800 nM | GI50 [9]: 420 nM | CC50 [9]: 46800 nM | GI50 (NCI-H226): 2930 nM | CC50 (NCI-H226): 36100 nM | GI50 (NCI-H23): 650 nM | CC50 (NCI-H23): 6070 nM | GI50 (NCI-H322M): 880 nM | CC50 (NCI-H322M; read-out: LC50 (the source's name)): 5380 nM | GI50 (NCI-H460): 330 nM | CC50 (NCI-H460): 6130 nM | GI50 (NCI-H522): 8140 nM | CC50 (NCI-H522): 60000 nM | GI50 (SF-268): 3140 nM | CC50 (SF-268): 4430 nM | GI50 [10]: 1040 nM | LC50 (concentration killing 50% of cells) [10]: 5400 nM | GI50 [11]: 1970 nM | CC50 [11]: 9890 nM | GI50 (SNB-19): 1390 nM | LC50 (SNB-19): 5480 nM | GI50 (SNB-75): 2090 nM | CC50 (SNB-75): 8910 nM | GI50 (U-251): 2430 nM | LC50 (U-251): 31800 nM | MIC (Staphylococcus aureus): 4 µg/mL

Reference: ChEMBL document CHEMBL3232814, “Synthesis and anticancer structure activity relationship investigation of cationic anthraquinone analogs” (2014)
